From paper PMC8612341, “Cyclic ^68Ga-Labeled Peptides for Specific Detection of Human Angiotensin-Converting Enzyme 2” (Journal of Nuclear Medicine, 2021)
Where a SMILES comes first, the peptide text is derived from it. Bridges are numbered along the chain shown (N, C = ends). The star is where a group is joined. NOTA = O=C(O)CN1CCN(CC(=O)O)CCN(CC(=O)*)CC1

What was measured:
[1] = biological target: T1, ACE2 (Homo sapiens, UniProt Q9BYF1); experiment: ACE2 inhibition assay (SensoLyte 390 ACE2 Activity Assay Kit, fluorimetric, AnaSpec); type: biochemical; details: for IC50: nonlinear fit of 6-point dilution series, Fig. 2D
T1 construct: purchased AnaSpec AS-72086
Method: Six DX600-derived peptides, named NOTA-PEP1 to NOTA-PEP6 (cyclic vs. noncyclic, with triglycine, aminocaproate, and polyethylene glycol linkers), were studied using a commercially available ACE2 inhibition assay according to the manufacturer’s instructions (SensoLyte 390 ACE2 Activity Assay Kit *Fluorimetric*, AS-72086; AnaSpec). Each peptide inhibitor was first tested at 4 concentrations. Initial velocities were determined relative to the inhibitor free reaction. Subsequently, IC50 values were derived from nonlinear fits of saturation curves of a 6-point dilution series of peptide inhibitors.

[2] = biological target: T1, ACE2; set-up: method as in earlier work; details: vs. ACE and carboxypeptidase A; ref 30 (Huang et al.); cited from earlier work
[3] = fluorometric ACE2 inhibition assay (AnaSpec)

T1 sequence (Q9BYF1 18-805): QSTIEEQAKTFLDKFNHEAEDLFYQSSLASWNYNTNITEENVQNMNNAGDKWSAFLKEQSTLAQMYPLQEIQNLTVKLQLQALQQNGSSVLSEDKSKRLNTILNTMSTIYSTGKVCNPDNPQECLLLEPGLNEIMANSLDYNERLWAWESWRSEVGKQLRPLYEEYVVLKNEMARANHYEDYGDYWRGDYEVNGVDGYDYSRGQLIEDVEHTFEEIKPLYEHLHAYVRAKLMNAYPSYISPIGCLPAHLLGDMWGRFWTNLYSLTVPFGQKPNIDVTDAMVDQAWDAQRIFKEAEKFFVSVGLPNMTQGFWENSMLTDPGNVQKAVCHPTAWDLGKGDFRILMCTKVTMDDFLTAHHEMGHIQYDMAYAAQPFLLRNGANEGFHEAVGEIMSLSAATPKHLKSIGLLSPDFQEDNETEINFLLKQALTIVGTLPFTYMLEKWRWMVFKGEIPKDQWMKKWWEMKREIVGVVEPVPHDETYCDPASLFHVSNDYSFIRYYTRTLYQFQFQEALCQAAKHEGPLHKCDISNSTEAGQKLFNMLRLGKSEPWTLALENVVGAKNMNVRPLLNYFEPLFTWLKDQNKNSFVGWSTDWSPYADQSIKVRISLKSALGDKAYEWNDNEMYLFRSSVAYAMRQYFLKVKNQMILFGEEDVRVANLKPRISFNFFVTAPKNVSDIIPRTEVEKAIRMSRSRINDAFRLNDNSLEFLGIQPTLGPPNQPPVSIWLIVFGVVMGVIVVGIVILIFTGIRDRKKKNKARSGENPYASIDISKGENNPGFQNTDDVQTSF

| Structure (SMILES) | IC50 [1, 3] [nM] | Specificity for ACE2 [2] | Change of observed ACE2 IC50 on addition of tris(2-carboxyethyl)phosphine (TCEP) ([1]; TCEP reduces the disulfide bridge (producing linear NOTA-PEP5), Fig. 2E) | ACE2 inhibition compared with parent DX600 peptide ([1]; fluorometric ACE2 inhibition assay (AnaSpec), Figs. 2C and 2D) |
| --- | --- | --- | --- | --- |
| CC(C)C[C@@H]1NC(=O)[C@@H]2CCCN2C(=O)[C@H](CO)NC(=O)[C@@H](NC(=O)[C@H](Cc2c[nH]cn2)NC(=O)[C@H](CO)NC(=O)[C@H](Cc2ccc(O)cc2)NC(=O)[C@H](CC(=O)O)NC(=O)CNC(=O)CCCCCNC(=O)CN2CCN(CC(=O)O)CCN(CC(=O)O)CC2)CSSC[C@@H](C(=O)N[C@H](C(=O)N[C@@H](Cc2ccc(O)cc2)C(=O)N2CCC[C@H]2C(=O)N[C@@H](CC(=O)O)C(=O)N2CCC[C@H]2C(=O)N[C@@H](CCC(=O)O)C(=O)NCC(=O)NCC(=O)NCC(N)=O)[C@@H](C)O)NC(=O)[C@H](CCCCN)NC(=O)[C@H](Cc2c[nH]c3ccccc23)NC(=O)[C@H](Cc2c[nH]c3ccccc23)NC(=O)[C@@H]2CCCN2C(=O)[C@H](Cc2ccc(O)cc2)NC(=O)[C@H](Cc2ccc(O)cc2)NC(=O)[C@H](CCCNC(=N)N)NC1=O [NOTA-PEP4] | 67.6 |  |  |  |
| CC(=O)NCC(=O)N[C@@H](CC(=O)O)C(=O)N[C@@H](Cc1ccc(O)cc1)C(=O)N[C@@H](CO)C(=O)N[C@@H](Cc1c[nH]cn1)C(=O)N[C@H]1CSSC[C@@H](C(=O)N[C@H](C(=O)N[C@@H](Cc2ccc(O)cc2)C(=O)N2CCC[C@H]2C(=O)N[C@@H](CC(=O)O)C(=O)N2CCC[C@H]2C(=O)N[C@@H](CCC(=O)O)C(=O)NCC(=O)NCC(=O)NCC(N)=O)[C@@H](C)O)NC(=O)[C@H](CCCCN)NC(=O)[C@H](Cc2c[nH]c3ccccc23)NC(=O)[C@H](Cc2c[nH]c3ccccc23)NC(=O)[C@@H]2CCCN2C(=O)[C@H](Cc2ccc(O)cc2)NC(=O)[C@H](Cc2ccc(O)cc2)NC(=O)[C@H](CCCNC(=N)N)NC(=O)[C@H](CC(C)C)NC(=O)[C@@H]2CCCN2C(=O)[C@H](CO)NC1=O [DX600, reference compound] | 114 | specificity for ACE2 vs. ACE and carboxypeptidase A |  |  |
| CC(C)C[C@@H]1NC(=O)[C@@H]2CCCN2C(=O)[C@H](CO)NC(=O)[C@@H](NC(=O)[C@H](Cc2c[nH]cn2)NC(=O)[C@H](CO)NC(=O)[C@H](Cc2ccc(O)cc2)NC(=O)[C@H](CC(=O)O)NC(=O)CNC(=O)CNC(=O)CNC(=O)CNC(=O)CN2CCN(CC(=O)O)CCN(CC(=O)O)CC2)CSSC[C@@H](C(=O)N[C@H](C(=O)N[C@@H](Cc2ccc(O)cc2)C(=O)N2CCC[C@H]2C(=O)N[C@@H](CC(=O)O)C(=O)N2CCC[C@H]2C(=O)N[C@@H](CCC(=O)O)C(=O)NCC(=O)NCC(=O)NCC(N)=O)[C@@H](C)O)NC(=O)[C@H](CCCCN)NC(=O)[C@H](Cc2c[nH]c3ccccc23)NC(=O)[C@H](Cc2c[nH]c3ccccc23)NC(=O)[C@@H]2CCCN2C(=O)[C@H](Cc2ccc(O)cc2)NC(=O)[C@H](Cc2ccc(O)cc2)NC(=O)[C@H](CCCNC(=N)N)NC1=O [NOTA-PEP2] ({NOTA}-GGGGDYSHCSPLRYYPWWKCTYPDPEGGG-NH2; disulfide 9-20) | 101 |  |  |  |
| CC(C)C[C@@H]1NC(=O)[C@@H]2CCCN2C(=O)[C@H](CO)NC(=O)[C@@H](NC(=O)[C@H](Cc2c[nH]cn2)NC(=O)[C@H](CO)NC(=O)[C@H](Cc2ccc(O)cc2)NC(=O)[C@H](CC(=O)O)NC(=O)CNC(=O)CCOCCOCCNC(=O)CN2CCN(CC(=O)O)CCN(CC(=O)O)CC2)CSSC[C@@H](C(=O)N[C@H](C(=O)N[C@@H](Cc2ccc(O)cc2)C(=O)N2CCC[C@H]2C(=O)N[C@@H](CC(=O)O)C(=O)N2CCC[C@H]2C(=O)N[C@@H](CCC(=O)O)C(=O)NCC(=O)NCC(=O)NCC(N)=O)[C@@H](C)O)NC(=O)[C@H](CCCCN)NC(=O)[C@H](Cc2c[nH]c3ccccc23)NC(=O)[C@H](Cc2c[nH]c3ccccc23)NC(=O)[C@@H]2CCCN2C(=O)[C@H](Cc2ccc(O)cc2)NC(=O)[C@H](Cc2ccc(O)cc2)NC(=O)[C@H](CCCNC(=N)N)NC1=O [NOTA-PEP6] |  |  | markedly increased | nearly identical to DX600 |
| CC(C)C[C@H](NC(=O)[C@@H]1CCCN1C(=O)[C@H](CO)NC(=O)[C@H](CS)NC(=O)[C@H](Cc1c[nH]cn1)NC(=O)[C@H](CO)NC(=O)[C@H](Cc1ccc(O)cc1)NC(=O)[C@H](CC(=O)O)NC(=O)CNC(=O)CNC(=O)CNC(=O)CNC(=O)CN1CCN(CC(=O)O)CCN(CC(=O)O)CC1)C(=O)N[C@@H](CCCNC(=N)N)C(=O)N[C@@H](Cc1ccc(O)cc1)C(=O)N[C@@H](Cc1ccc(O)cc1)C(=O)N1CCC[C@H]1C(=O)N[C@@H](Cc1c[nH]c2ccccc12)C(=O)N[C@@H](Cc1c[nH]c2ccccc12)C(=O)N[C@@H](CCCCN)C(=O)N[C@@H](CS)C(=O)N[C@H](C(=O)N[C@@H](Cc1ccc(O)cc1)C(=O)N1CCC[C@H]1C(=O)N[C@@H](CC(=O)O)C(=O)N1CCC[C@H]1C(=O)N[C@@H](CCC(=O)O)C(=O)NCC(=O)NCC(=O)NCC(N)=O)[C@@H](C)O [NOTA-PEP1] ({NOTA}-GGGGDYSHCSPLRYYPWWKCTYPDPEGGG-NH2) | 2400 |  |  |  |
